Values quoted from earlier work in patent US7847105B2, “Methods and compounds for preparing CC-1065 analogs” (Medarex, Inc., priority 2005, dated 2010).

What was measured:
[1] = both in vitro and in experimental animals
[2] = system: experimental animals; conditions: reason why it cannot be used in humans

CC-1065
antitumor and antimicrobial activity [1]: potent antitumor and antimicrobial activity
toxicity in experimental animals [2]: causes delayed death
